{"source": "patent US20240238290A1", "about": "“USE OF COMPLEMENT FACTOR D INHIBITOR FOR TREATMENT OF GENERALIZED MYASTHENIA GRAVIS” (Alexion Pharmaceuticals, Inc., priority 2021, published 2024)", "key": {"[1]": {"system": "complement alternative pathway (AP) activity", "test": "AP inhibition in the AP Wieslab assay (PD), Phase 1 healthy volunteer studies", "assay_type": "in vivo, human", "experimental": "(§1) In addition, both dosage regimens provided complete (>90%) and sustained inhibition of AP activity throughout the 12-hour dosing interval. Therefore, 120 mg BID is selected as the minimum therapeutic dosage."}, "[2]": {"test": "Safety and safety margin of multiple dose regimens versus NOAEL exposures from nonclinical chronic toxicology studies", "assay_type": "in vivo, human", "conditions": "multiple dose study", "experimental": "as §1"}, "[3]": {"test": "Phase 1 single ascending and multiple ascending dose studies, PK", "assay_type": "in vivo, human", "conditions": "for PK exposures versus dose: healthy volunteers"}, "FD (complement factor D)": {"biological_target": "FD (complement factor D) (Homo sapiens, UniProt P00746)", "sequence (P00746 26-253)": "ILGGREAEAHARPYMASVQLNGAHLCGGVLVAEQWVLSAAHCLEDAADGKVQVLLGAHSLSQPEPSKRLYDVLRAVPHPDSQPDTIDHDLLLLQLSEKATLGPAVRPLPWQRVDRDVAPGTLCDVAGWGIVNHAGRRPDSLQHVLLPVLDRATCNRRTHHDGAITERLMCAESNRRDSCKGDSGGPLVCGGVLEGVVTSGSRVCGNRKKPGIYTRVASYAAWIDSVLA", "test": "Inhibition of factor D"}, "plasma Bb": {"system": "plasma Bb", "test": "Biomarkers of AP activity in vivo (plasma Bb levels)"}}, "data": [{"compound": "CC(=O)c1nn(CC(=O)N2[C@H](C(=O)Nc3nc(Br)ccc3C)C[C@@]3(C)C[C@@H]23)c2ccc(-c3cnc(C)nc3)cc12", "note": "[Compound 1, vemircopan]", "values": [{"measurement": "inhibition at 120 mg", "setting": "[1]; Homo sapiens, 120 mg BID, sustained throughout the 12-hour dosing interval", "value": "> 90", "unit": "%"}, {"measurement": "inhibition at 200 mg", "setting": "[1]; Homo sapiens, 200 mg BID, sustained throughout the 12-hour dosing interval", "value": "> 90", "unit": "%"}, {"measurement": "PD activity as determined by AP inhibition in the AP Wieslab assay", "setting": "[1]; healthy volunteers, Phase 1", "value": "increased with increasing exposure"}, {"measurement": "inhibition of complement AP activity in vivo", "setting": "[1]; in vivo", "value": "dose dependent inhibition"}, {"measurement": "safety and effectiveness of dosage regimen", "setting": "[2]; 120 mg BID", "value": "safe and effective"}, {"measurement": "safety margin in AUC0-24 over exposures at NOAEL", "setting": "[2]; 120 mg BID", "value": "≥ 10", "unit": "fold"}, {"measurement": "safety margin in Cmax over exposures at NOAEL", "setting": "[2]; 120 mg BID", "value": "≥ 10", "unit": "fold"}, {"measurement": "safety and effectiveness of dosage regimen", "setting": "[2]; 200 mg BID", "value": "safe and effective"}, {"measurement": "safety margin in AUC0-24 over exposures at NOAEL", "setting": "[2]; 200 mg BID", "value": "≥ 10", "unit": "fold"}, {"measurement": "safety margin in Cmax over exposures at NOAEL", "setting": "[2]; 200 mg BID", "value": "≥ 10", "unit": "fold"}, {"measurement": "variability in the PK and PD data and PK/PD relationship", "setting": "[3]; Phase 1 healthy volunteers", "value": "large variabilities"}, {"measurement": "PK exposures versus dose", "setting": "[3]; following single doses", "value": "increased dose proportionally"}, {"measurement": "PK exposures versus dose", "setting": "[3]; multiple doses at steady state, 40 mg BID to 200 mg BID", "value": "greater than dose proportional manner"}, {"measurement": "inhibition of FD", "setting": "FD (complement factor D)", "value": "potent inhibitor"}, {"measurement": "plasma Bb levels following administration", "setting": "plasma Bb", "value": "significant dose-dependent reductions"}]}]}
